Data from patent publication US6866857B1, “Oxalipatinum preparation packaging” (Debiopharm S.A., priority 1998, dated 2005).
Entries after “also recorded” stand apart in the source; their conditions may differ.

How the values were obtained:
[1] = accelerated stability study of liquid oxaliplatinum solution packed in flexible bag; assay type: physicochemical; conditions: for Appearance of the solution / pH / Impurities by HPLC (%) / L-OHP titre/standard (%) / Oxalic acid titre (%): 2 mg/ml solution, 40° C.
[2] = tolerance of aqueous oxaliplatinum preparations to contact with PVC-based materials; assay type: physicochemical; conditions: pharmaceutical preparations in aqueous solution
[3] = 6 Months, HPLC, PA 11/PP bag, 75% RH
[4] = 12 Months, PA 11/PP bag, 75% RH
[5] = 12 Months, HPLC, PA 11/PP bag, 75% RH
[6] = Week 0, HPLC, PA 11/PP bag, 75% RH
[7] = Week 1, HPLC, PA 11/PP bag, 75% RH
[8] = Week 2, HPLC, PA 11/PP bag, 75% RH
[9] = Week 3, HPLC, PA 11/PP bag, 75% RH
[10] = Week 4, HPLC, PA 11/PP bag, 75% RH
[11] = Week 5, HPLC, PA 11/PP bag, 75% RH
[12] = Week 12, HPLC, PA 11/PP bag, 75% RH

O=C1[O][Pt]2([NH][C@@H]3CCCC[C@H]3[NH]2)[O]C1=O (relative stereo) [oxaliplatinum, cis-oxalato(trans-1-1-diaminocyclohexane) platinum(II)]
Appearance of the solution ([1]; 6 Months, PA 11/PP bag, 75% RH): Clear, | pH ([1]; 6 Months, PA 11/PP bag, 75% RH): 5.20 | Impurities by HPLC (%) [1, 3]: 0.5% | L-OHP titre/standard (%) [1, 3]: 98.9% | Oxalic acid titre (%) [1, 3]: <0.1% | Appearance of the solution [1, 4]: Clear, | pH [1, 4]: 5.30 | Impurities by HPLC (%) [1, 5]: 0.6% | L-OHP titre/standard (%) [1, 5]: 98.5% | Oxalic acid titre (%) [1, 5]: <0.1% | maximum percentage of apparent impurities ([1]; HPLC): ≤ 2% | Appearance of the solution ([1]; Week 0, 100 ml PA 11/PP bag, 75% relative humidity): Clear, | pH ([1]; Week 0, PA 11/PP bag, 75% RH): 5.56 | Impurities by HPLC (%) [1, 6]: 0.10% | L-OHP titre/standard (%) [1, 6]: 99.7% | Oxalic acid titre (%) [1, 6]: <0.1% | Appearance of the solution ([1]; Week 1, PA 11/PP bag, 75% RH): Clear, | pH ([1]; Week 1, PA 11/PP bag, 75% RH): 5.10 | Impurities by HPLC (%) [1, 7]: 0.60% | L-OHP titre/standard (%) [1, 7]: 100.1% | Oxalic acid titre (%) [1, 7]: <0.1% | Appearance of the solution ([1]; Week 2, PA 11/PP bag, 75% RH): Clear, | pH ([1]; Week 2, PA 11/PP bag, 75% RH): 5.24 | Impurities by HPLC (%) [1, 8]: 0.50% | L-OHP titre/standard (%) [1, 8]: 100.0% | Oxalic acid titre (%) [1, 8]: <0.1% | Appearance of the solution ([1]; Week 3, PA 11/PP bag, 75% RH): Clear, | pH ([1]; Week 3, PA 11/PP bag, 75% RH): 5.22 | Impurities by HPLC (%) [1, 9]: 0.50% | L-OHP titre/standard (%) [1, 9]: 100.9% | Oxalic acid titre (%) [1, 9]: <0.1% | Appearance of the solution ([1]; Week 4, PA 11/PP bag, 75% RH): Clear, | Impurities by HPLC (%) [1, 10]: 0.48% | L-OHP titre/standard (%) [1, 10]: 99.3% | Oxalic acid titre (%) [1, 10]: <0.1% | Appearance of the solution ([1]; Week 5, PA 11/PP bag, 75% RH): Clear, | pH ([1]; Week 5, PA 11/PP bag, 75% RH): 5.23 | Impurities by HPLC (%) [1, 11]: 0.45% | L-OHP titre/standard (%) [1, 11]: 97.7% | Oxalic acid titre (%) [1, 11]: <0.1% | Appearance of the solution ([1]; Week 12, PA 11/PP bag, 75% RH): Clear, | pH ([1]; Week 12, PA 11/PP bag, 75% RH): 5.35 | Impurities by HPLC (%) [1, 12]: 0.40% | L-OHP titre/standard (%) [1, 12]: 99.3% | Oxalic acid titre (%) [1, 12]: <0.1% | period of stability of the liquid solution packed in a flexible bag ([1]; liquid solution in flexible bag): stable for a period extending to more than three months, and even to more than six months; also recorded: stable for at least one year | appearance of the solution over the whole period ([1]; observed for twelve months, flexible bag): clarity and the absence of coloration | stability compared with solution packed in a glass bottle ([1]; same conditions, FIG. 6 vs FIG. 7): stability analogous | tolerance of contact with PVC-based materials [2]: cannot tolerate being in contact with PVC-based materials
